Results taken from ChEMBL document CHEMBL4152332, “Discovery and synthesis of novel magnolol derivatives with potent anticancer activity in non-small cell lung cancer” (Eur J Med Chem, 2018).

How the values were obtained:
Type in all cases: functional, cell-based
NCI-H1975 = assay: Antiproliferative activity against human NCI-H1975 cells after 72 hrs by MTT assay; conditions: NCI-H1975, 72 h
NCI-H460 = assay: Antiproliferative activity against human H460 cells after 72 hrs by MTT assay; conditions: NCI-H460, 72 h
HCC827 = assay: Antiproliferative activity against human HCC827 cells after 72 hrs by MTT assay; conditions: HCC827, 72 h

| IC50 (NCI-H1975) | IC50 (NCI-H460) | IC50 (HCC827) | Structure (SMILES) |
| --- | --- | --- | --- |
| > 40 µM | > 40 µM | > 40 µM | C=CCc1cc(-c2cc(C(=O)O)ccc2O)ccc1O |
| > 40 µM | > 40 µM | > 40 µM | C=CCc1cc(-c2cc(/C=C/CO)ccc2O)c(O)c([C@@H]2C=C(C)CC[C@H]2C(C)C)c1 |
| 34.5 µM | 31.6 µM | 33.6 µM | C=CCc1cc(-c2cc(/C=C/CO)ccc2O)ccc1O |
| > 40 µM | > 40 µM | > 40 µM | C=CCc1ccc(O)c(-c2cc(C(=O)O)ccc2O)c1 |
| > 40 µM | > 40 µM | > 40 µM | C=CCc1ccc(O)c(-c2ccc(O)c(CC3CO3)c2)c1 (centres undefined) |
| > 20 µM | > 20 µM | > 20 µM | C=CCc1ccc(O)c(-c2cc(CC=C)cc(CN3CCCC(CO)C3)c2O)c1 (centres undefined) |
| > 40 µM | > 40 µM | > 40 µM | C=CCc1ccc(O)c(-c2cc(CC(O)CO)ccc2O)c1 (centres undefined) |
| > 40 µM | > 40 µM | > 40 µM | C=CCc1ccc(O)c(-c2cc(/C=C/CO)ccc2O)c1 |
| > 40 µM | > 40 µM | > 40 µM | OCC(O)Cc1ccc(O)c(-c2cc(CC(O)CO)ccc2O)c1 (centres undefined) |
| > 40 µM | > 40 µM | > 40 µM | C=CCc1ccc(O)c(-c2cc(O)ccc2O)c1 [RANDAIOL] |
| > 40 µM | > 40 µM | > 40 µM | C=CCc1cc(-c2cc(CC(O)CO)ccc2O)ccc1O (centres undefined) [MAGNOLIGNAN] |
| > 20 µM | > 20 µM | > 20 µM | C=CCc1ccc(O)c(-c2cc(CC=C)cc(CN3CCSCC3)c2O)c1 |

The remaining lines, values behind:

| Structure (SMILES) | IC50 (NCI-H1975) | IC50 (NCI-H460) | IC50 (HCC827) |
| --- | --- | --- | --- |
| C=CCc1ccc(O)c(-c2cc(CC=C)cc(CN3CCNCC3)c2O)c1 | > 20 µM | > 20 µM | > 20 µM |
| C=CCc1ccc(O)c(-c2cc(CC=C)cc(CN3CCN(Cc4ccccc4)CC3)c2O)c1 | > 20 µM | > 20 µM | > 20 µM |
| C=CCc1cc(-c2cc(/C=C/C=O)ccc2O)ccc1O [MAGNALEDEHYDE B] | 34.1 µM | 32.4 µM | 35.5 µM |
| C=CCc1ccc(O)c(-c2cc(CC=C)cc(CN3CCCC(C)C3)c2O)c1 (centres undefined) | > 20 µM | > 20 µM | > 20 µM |
| C=CCc1ccc(O)c(-c2cc(CC=C)cc(CN3CCCC(C(=O)OCC)C3)c2O)c1 (centres undefined) | > 20 µM | > 20 µM | > 20 µM |
| C=CCc1ccc(O)c(-c2cc(CC=C)cc(CN3CCC(C(=O)OCC)CC3)c2O)c1 | > 20 µM | > 20 µM | > 20 µM |
| C=CCc1ccc(O)c(-c2cc(CC=C)cc(CN3CCN(C(=O)OCC)CC3)c2O)c1 | > 20 µM | > 20 µM | > 20 µM |
| C=CCc1ccc(O)c(-c2cc(CC=C)cc(CN3CCN(C)CC3)c2O)c1 | > 20 µM | > 20 µM | > 20 µM |
| C=CCc1ccc(O)c(-c2cc(CC=C)cc(CN3CCN(C(=O)OC(C)(C)C)CC3)c2O)c1 | > 20 µM | > 20 µM | > 20 µM |
| C=CCc1ccc(O)c(-c2cc(CC=C)cc(CN3CCCC(NC(=O)C=C)C3)c2O)c1 (centres undefined) | > 20 µM | > 20 µM | > 20 µM |
| C=CCc1ccc(O)c(-c2cc(CC=C)cc(CN3CCOCC3)c2O)c1 | > 20 µM | > 20 µM | > 20 µM |
| C=CCc1ccc(O)c(-c2cc(CC=C)cc(CN3CCC(NC(=O)C=C)CC3)c2O)c1 | > 20 µM | > 20 µM | > 20 µM |
| C=CCc1ccc(O)c(-c2cc(CC=C)cc(CN3CCN(c4ccccc4)CC3)c2O)c1 | > 20 µM | > 20 µM | > 20 µM |
| C=CCc1ccc(O)c(-c2cc(CC=C)cc(CN3CCN(C=O)CC3)c2O)c1 | > 20 µM | > 20 µM | > 20 µM |
| C=CCc1ccc(O)c(-c2cc(CC=C)cc(CN3CCN(CCCO)CC3)c2O)c1 | > 20 µM | > 20 µM | > 20 µM |
| C=CCc1ccc(O)c(-c2cc(CC=C)cc(CN3CCN(C(C)C)CC3)c2O)c1 | > 20 µM | > 20 µM | > 20 µM |
